The text below walks through data of patent US11578087B2, “Oxaborole esters and uses thereof” (priority 2016, dated 2023).

Some results are limits rather than exact numbers.

The test deals with T. cruzi amastigote (Td Tomato-modified) in Vero cells. Nature of the test: In vitro IC50 measurement of T. cruzi amastigote killing using Td Tomato-modified T. cruzi. It is filed as cell-based. As to conditions: Trypanosoma cruzi, 72 h, fluorescence, read-out: IC50: I Org. amastigote Growth T. cruzi 3 d. The protocol:
Example 254. In Vitro IC50 Measurement of T. cruzi Amastigote Killing Using Td Tomato-Modified T. cruzi
The T. cruzi parasites used in this assay were genetically modified to express Td Tomato fluorescent protein. Vero cells (African green monkey kidney epithelial cells) were harvested from continuous cultures using trypsin and added to the inner 60 wells of 96-well Greiner Bio One plates (plate catalog #655090) at 200 ul/well of […]. Cells were allowed to adhere for 1 h before infection with T. cruzi. T. cruzi for infection were harvested from previously-infected Vero cells, washed, pelleted and resuspended at 5×10^6/mL. 50 uL of parasites were added to each well containing Vero cells. Compounds were prepared from 5 mM stock concentrations in DMSO to final concentrations in wells ranging from 5 uM to 5 nM. Wells were provided for negative controls, lacking compounds. Plates were placed into a 37° C. incubator for 20 min, then a “Day 0” reading was taken on a Synergy H4 plate reader to record initial fluorescence levels, at 544 (excitation) and 612 nm (emission). 96-well plates were placed in Tupperware containers with wet paper towels and incubated at 37° C. incubator for 72 h. After 72 h plates were reread (Day 3 reading) and data analyzed using Excel and/or Graphpad software. Day 0 fluorescence was subtracted from Day 3 to remove input parasite fluorescence. Growth curves are generated and 50% and 90% inhibitory concentrations are determined by nonlinear regression analysis.
For orientation: IC50 means the concentration that inhibits the measured activity by half. In the case of `Cc1c(C(=O)N[C@H](C(=O)OCc2ccc(C(=O)N3CCN(C)CC3)cc2)C(C)C)ccc2c1B(O)OC2` [Example 6-105, 4-(4-Methylpiperazine-1-carbonyl)benzyl (1-hydroxy-7-methyl-1,3-dihydrobenzo[c][1,2]oxaborole-6-carbonyl)-L-valinate], the IC50 was in the range of 0.021 to 0.999 µM.
As for `Cc1c(C(=O)N[C@H](C(=O)OC[C@H](O)CO)C(C)C)ccc2c1B(O)OC2` [Example 6-147, (R)-2,3-dihydroxypropyl (1-hydroxy-7-methyl-1,3-dihydrobenzo[c][1,2]oxaborole-6-carbonyl)-L-valinate], the IC50 was no less than 1 µM.
The result for `Cc1c(C(=O)N[C@H](C(=O)OCc2ccccn2)C(C)(C)O)ccc2c1B(O)OC2` [Example 6-230, Pyridin-2-ylmethyl (S)-3-hydroxy-2-(1-hydroxy-7-methyl-1,3-dihydrobenzo[c][1,2]oxaborole-6-carboxamido)-3-methylbutanoate] reads 0.021 to 0.999 µM; that for `Cc1c(C(=O)N[C@H](C(=O)O[C@H](C)c2ccccc2)C(C)C)ccc2c1B(O)OC2` [Example 6-198, (R)-1-phenylethyl (1-hydroxy-7-methyl-1,3-dihydrobenzo[c][1,2]oxaborole-6-carbonyl)-L-valinate], no more than 0.02 µM; that for `Cc1c(C(=O)N[C@H](C(=O)OCc2cncc(N(C)C)n2)C(C)C)ccc2c1B(O)OC2` [Example 6-232, (6-(dimethylamino)pyrazin-2-yl)methyl (1-hydroxy-7-methyl-1,3-dihydrobenzo[c][1,2]oxaborole-6-carbonyl)-L-valinate], no more than 0.02 µM.
As for `Cc1c(C(=O)N[C@H](C(=O)OCc2ccc([S+]([O-])C(C)C)cc2)C(C)C)ccc2c1B(O)OC2` (stereo partly drawn) [Example 6-089, 4-(Isopropylsulfinyl)benzyl (1-hydroxy-7-methyl-1,3-dihydrobenzo[c][1,2]oxaborole-6-carbonyl)-L-valinate], the IC50 was in the range of 0.021 to 0.999 µM.
Turning to `Cc1c(C(=O)N[C@H](C(=O)OCC2CCCC2)C(C)C)ccc2c1B(O)OC2` [Example 6-115, Cyclopentylmethyl (1-hydroxy-7-methyl-1,3-dihydrobenzo[c][1,2]oxaborole-6-carbonyl)-L-valinate], the IC50 is no more than 0.02 µM.
The result for `Cc1c(C(=O)N[C@H](C(=O)OCc2cncc(N3CCNCC3)n2)C(C)C)ccc2c1B(O)OC2` [Example 6-205, (6-(piperazin-1-yl)pyrazin-2-yl)methyl (1-hydroxy-7-methyl-1,3-dihydrobenzo[c][1,2]oxaborole-6-carbonyl)-L-valinate] reads no less than 1 µM.
The result for `Cc1c(C(=O)N[C@H](C(=O)OCc2ccc(C(=O)N(C)CCN(C)C)cc2)C(C)C)ccc2c1B(O)OC2` [Example 6-106, 4-((2-(Dimethylamino)ethyl)(methyl)carbamoyl)benzyl (1-hydroxy-7-methyl-1,3-dihydrobenzo[c][1,2]oxaborole-6-carbonyl)-L-valinate] reads no less than 1 µM; that for `COc1c(C(=O)N[C@H](C(=O)OCc2ccc(F)cc2)C(C)C)ccc2c1B(O)OC2` [Example 6-195, 4-fluorobenzyl (1-hydroxy-7-methoxy-1,3-dihydrobenzo[c][1,2]oxaborole-6-carbonyl)-L-valinate], 0.021 to 0.999 µM.
On to `Cc1c(C(=O)N[C@H](C(=O)OC[C@@H]2CCOC2)C(C)C)ccc2c1B(O)OC2` [Example 6-234, ((R)-tetrahydrofuran-3-yl)methyl (1-hydroxy-7-methyl-1,3-dihydrobenzo[c][1,2]oxaborole-6-carbonyl)-L-valinate], for which the IC50 is no more than 0.02 µM.
As to `Cc1c(C(=O)N[C@H](C(=O)OCC2CCC(F)(F)CC2)C(C)(C)O)ccc2c1B(O)OC2` [Example 6-248, (4,4-difluorocyclohexyl)methyl (S)-3-hydroxy-2-(1-hydroxy-7-methyl-1,3-dihydrobenzo[c][1,2]oxaborole-6-carboxamido)-3-methylbutanoate], the IC50 is 0.021 to 0.999 µM.
Turning to `Cc1c(C(=O)N[C@H](C(=O)OCCN2CCC3(CC2)COC3)C(C)C)ccc2c1B(O)OC2` [Example 6-217, 2-(2-oxa-7-azaspiro[3.5]nonan-7-yl)ethyl (1-hydroxy-7-methyl-1,3-dihydrobenzo[c][1,2]oxaborole-6-carbonyl)-L-valinate], the IC50 is no less than 1 µM.
In the case of `Cc1c(C(=O)NC2(C(=O)OCc3ccc(F)cc3)CC2)ccc2c1B(O)OC2` [Example 6-068, 4-Fluorobenzyl 1-(1-hydroxy-7-methyl-1,3-dihydrobenzo[c][1,2]oxaborole-6-carboxamido)cyclopropane-1-carboxylate], the IC50 was 0.021 to 0.999 µM.
Take `Cc1c(C(=O)N[C@H](C(=O)OCCN2CCN(C)CC2)C(C)C)ccc2c1B(O)OC2` [Example 6-096, 2-(4-Methylpiperazin-1-yl)ethyl (1-hydroxy-7-methyl-1,3-dihydrobenzo[c][1,2]oxaborole-6-carbonyl)-L-valinate]: the IC50 is no less than 1 µM.
Turning to `CC(C)[C@H](NC(=O)c1ccc2c(c1)B(O)OC2)C(=O)OCc1ccc(F)c(F)c1` [Example 6-185, 3,4-difluorobenzyl (1-hydroxy-1,3-dihydrobenzo[c][1,2]oxaborole-6-carbonyl)-L-valinate], the IC50 fell in the range of 0.021 to 0.999 µM.
Regarding `COCC1(COC(=O)[C@@H](NC(=O)c2ccc3c(c2C)B(O)OC3)C(C)C)COC1` [Example 6-158, (3-(Methoxymethyl)oxetan-3-yl)methyl (1-hydroxy-7-methyl-1,3-dihydrobenzo[c][1,2]oxaborole-6-carbonyl)-L-valinate], the IC50 fell in the range of 0.021 to 0.999 µM.
Turning to `Cc1c(C(=O)N[C@H](C(=O)OCc2cccnc2)C(C)C)ccc2c1B(O)OC2` [Example 6-187, Pyridin-3-ylmethyl (1-hydroxy-7-methyl-1,3-dihydrobenzo[c][1,2]oxaborole-6-carbonyl)-L-valinate], the IC50 is no more than 0.02 µM.
Consider `Cc1c(C(=O)N[C@H](C(=O)OCC(C)C)C(C)C)ccc2c1B(O)OC2` [Example 6-116, Isobutyl (1-hydroxy-7-methyl-1,3-dihydrobenzo[c][1,2]oxaborole-6-carbonyl)-L-valinate], for which the IC50 was no more than 0.02 µM.
The result for `Cc1c(C(=O)N[C@H](C(=O)OCC2(O)CCOC2)C(C)C)ccc2c1B(O)OC2` (stereo partly drawn) [Example 6-250, (3-hydroxytetrahydrofuran-3-yl)methyl (1-hydroxy-7-methyl-1,3-dihydrobenzo[c][1,2]oxaborole-6-carbonyl)-L-valinate] reads no less than 1 µM.
For `Cc1c(C(=O)N[C@H](C(=O)OCc2ccc(S(N)(=O)=O)cc2)C(C)C)ccc2c1B(O)OC2` [Example 6-108, 4-Sulfamoylbenzyl (1-hydroxy-7-methyl-1,3-dihydrobenzo[c][1,2]oxaborole-6-carbonyl)-L-valinate], the IC50 was no less than 1 µM.
